Data from ChEMBL document CHEMBL1201862, “PubChem BioAssay data set” (2004).
Active and inactive are the calls of the source.

Tests used:
[1] = biological target: T1, Streptokinase A (Streptococcus pyogenes serotype M1, UniProt P10520); experiment: S. pyogenes streptokinase expression inhibitors, potency, dose response, plasminogen activation absorbance, OD405 (AID 1914); assay type: functional, Streptococcus pyogenes M1 GAS;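 note: secreted streptokinase activity via plasminogen activation per viability signal from cell pellet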
T1 sequence (P10520 whole entry): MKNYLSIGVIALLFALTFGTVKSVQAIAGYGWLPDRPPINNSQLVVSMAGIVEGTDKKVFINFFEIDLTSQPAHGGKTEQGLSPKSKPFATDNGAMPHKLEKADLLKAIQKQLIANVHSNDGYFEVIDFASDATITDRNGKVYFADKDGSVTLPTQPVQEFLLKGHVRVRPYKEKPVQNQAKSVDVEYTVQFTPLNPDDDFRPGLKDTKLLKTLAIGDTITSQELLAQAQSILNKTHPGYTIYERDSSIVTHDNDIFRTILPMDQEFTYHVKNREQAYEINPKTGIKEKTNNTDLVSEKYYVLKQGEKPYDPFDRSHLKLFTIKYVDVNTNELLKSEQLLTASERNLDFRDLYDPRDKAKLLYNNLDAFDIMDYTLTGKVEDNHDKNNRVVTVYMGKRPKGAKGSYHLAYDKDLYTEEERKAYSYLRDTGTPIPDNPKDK

[2] = biological target: Cytochrome P450 2C19 (Homo sapiens, UniProt P33261); experiment: Cytochrome panel assay with activity outcomes. Panel member name: p450-cyp2c19 Compounds with AC50 equal or less than 10 uM are considered active; assay type: functional
Chain of Cytochrome P450 2C19 (P33261 whole entry): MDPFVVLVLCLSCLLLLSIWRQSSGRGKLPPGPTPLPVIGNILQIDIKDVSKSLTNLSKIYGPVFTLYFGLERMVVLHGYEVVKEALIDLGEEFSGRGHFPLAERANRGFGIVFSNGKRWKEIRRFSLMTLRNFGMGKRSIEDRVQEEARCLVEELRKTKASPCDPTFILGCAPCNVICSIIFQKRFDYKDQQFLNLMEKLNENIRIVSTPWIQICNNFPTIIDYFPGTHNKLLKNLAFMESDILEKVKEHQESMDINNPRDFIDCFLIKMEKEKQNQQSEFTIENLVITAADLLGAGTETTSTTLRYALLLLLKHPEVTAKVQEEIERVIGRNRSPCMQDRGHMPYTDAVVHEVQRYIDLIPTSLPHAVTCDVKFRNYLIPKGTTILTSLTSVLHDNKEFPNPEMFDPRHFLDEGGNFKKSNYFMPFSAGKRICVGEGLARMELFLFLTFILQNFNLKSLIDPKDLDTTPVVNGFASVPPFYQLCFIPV

[3] = inhibitors of firefly luciferase expression or activity, dose response, H4 neuroglioma cells, luminescence (AID 1990); assay type: functional, cell-based
[4] = Luminescence Cell-Based Dose Response HTS to Identify Inhibitors of 5'UTR Stem-Loop Driven Prion Protein mRNA Translation in H4 Neuroglioblastoma Cells. [Related pubchem assays: 1827 (Project Summary), 1813 (Primary HTS)]; assay type: functional
[5] = inhibitors of SNCA 5'UTR-driven reporter translation, confirmation, H4 neuroglioma cells, luminescence (AID 1988); assay type: functional, cell-based
[6] = biological target: T2, Rac GTPase-activating protein 1 (Homo sapiens, UniProt Q9H0H5); experiment: MgcRacGAP GTPase-activating activity inhibitors, confirmation, biochemical, ADP Hunter fluorescence, primary and confirmatory (AID 624330); assay type: functional
T2 sequence (Q9H0H5 whole entry): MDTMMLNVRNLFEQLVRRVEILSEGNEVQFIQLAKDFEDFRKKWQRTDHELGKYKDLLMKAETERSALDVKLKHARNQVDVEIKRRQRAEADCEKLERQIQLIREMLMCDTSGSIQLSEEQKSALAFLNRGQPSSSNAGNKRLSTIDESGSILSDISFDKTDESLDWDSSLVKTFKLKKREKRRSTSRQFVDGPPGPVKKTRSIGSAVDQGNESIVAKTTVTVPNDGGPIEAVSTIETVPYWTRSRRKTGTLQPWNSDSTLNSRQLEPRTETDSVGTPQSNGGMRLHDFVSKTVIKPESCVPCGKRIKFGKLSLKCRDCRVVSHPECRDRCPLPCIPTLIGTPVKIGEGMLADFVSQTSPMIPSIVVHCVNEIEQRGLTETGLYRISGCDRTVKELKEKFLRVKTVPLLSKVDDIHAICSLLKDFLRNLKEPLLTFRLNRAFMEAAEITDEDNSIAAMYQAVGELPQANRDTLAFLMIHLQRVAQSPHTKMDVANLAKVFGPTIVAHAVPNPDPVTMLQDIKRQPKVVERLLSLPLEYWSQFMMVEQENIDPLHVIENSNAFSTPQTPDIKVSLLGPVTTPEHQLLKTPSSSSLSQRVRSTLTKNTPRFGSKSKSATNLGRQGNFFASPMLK

[7] = test system: Streptococcus sp. 'group A'; experiment: growth inhibition of control SK(-) GAS strain, dose response, counter-screen for streptokinase expression inhibitor project, luminescence, kanamycin, BacTiterGlo, confirmation (AID 1900); assay type: functional, organism-based
[8] = test system: Streptococcus; experiment: Group A Streptococcus viability loss, dose response, counter-screen for streptokinase expression inhibitor project, luminescence, BacTiterGlo (AID 1915); assay type: functional, organism-based;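 note: potency for reduction of bacterial viability or growth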
[9] = growth suppression of beta-catenin-knockout colon cells, dose response, cell-based, HCT116, human colon tumor (AID 1045); assay type: functional;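 note: HCT116 colon tumor cells with beta catenin knocked out; cells exposed to compound for 60 hours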
[10] = growth suppression of PTEN-null colon cells, dose response, cell-based, HCT116 PTEN knockout (AID 1047); assay type: functional;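 note: HCT116 colon tumor cells with PTEN knocked out; cells exposed to compound for 60 hours before readout; potency for loss of cell viability measured by luminescence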
[11] = Luminescence Cell-Based Dose Retest to Confirm Inhibitors of Cancer Stem Cells. [Related pubchem assays (depositor defined):AID2717, AID2721]; assay type: functional; settings: Homo sapiens

Structure (SMILES)	EC50 [1]	IC50 [6]	EC50 [7]	EC50 [8]	further results
O=C(Cc1csc(Nc2[nH]c(=S)nc3ccccc23)n1)NCCCN1CCN(c2cccc(Cl)c2)CC1	> 150 µM (not active)				
O=C(NCCCN1CCCC1=O)c1ccc(CNS(=O)(=O)c2ccc(F)cc2)cc1					AC50 ([2]; read-out: AC50): 39.8 µM (inconclusive)
CC(C)(C)c1cc(-c2ccco2)c(C#N)c(SCC#N)n1					EC50 [3]: 16 µM (active); EC50 [4]: > 120 µM (not active); EC50 [5]: 15.2 µM (active)
CC(C)(C)CC(C)(C)NCC(=O)Nc1c2c(nc3ccccc13)CCC2		88.7 µM (active)			
Cc1ccc(CN2CCN(Cc3ccccc3F)CC2)cc1		76.6 µM (active)			
CN(C)c1ccc(C2C=C(c3ccc(Cl)cc3OC(F)F)Nc3ncnn32)cc1 (stereo unspecified)	> 150 µM (not active)		9.65 µM (active)	16.4 µM (active)	
CN(C)c1ccc(N/C=C/C(=O)C(C)(C)C)cc1		7.98 µM (active)			
O=C(c1ccc(F)cc1)N1CCN(C2CCCCC2)CC1		196 µM (active)			
CN1CCC(=C2c3ccccc3CCc3sccc32)CC1					AC50 ([2]; read-out: AC50): 3.98 µM (inconclusive)
Cc1ccc(Oc2cc(N3CCOCC3)nc(-c3ccccc3)n2)cc1					AC50 ([2]; read-out: AC50): 2.24 µM (inconclusive)
CCOC(=O)N1CCN(C(=O)c2ccc3c(c2)N(C)C(=O)/C(=C\c2ccc(OCC)c(OC)c2)S3)CC1	> 150 µM (not active)		0.624 µM (active)	4.57 µM (active)	
CCOC(=O)c1[nH]c2ccccc2c1N=C(S)Nc1cc(C)ccc1C		77.5 µM (active)			
COc1ccc(-c2nc(/C=C3\C(C)=Nc4ccccc43)c(O)o2)cc1	> 150 µM (not active)		3.54 µM (active)	12.1 µM (active)	
O=C(O)CC[C@@H](C(=O)O)N1C(=O)[C@@H]2[C@@H]3CC[C@H](C3)[C@@H]2C1=O					AC50 [2]: inconclusive
COc1cccc(-c2nc(NCCNC(C)=O)c3ccccc3n2)c1					AC50 ([2]; read-out: AC50): 15.8 µM (inconclusive)
COc1ccc(O)c(C(=O)c2coc(=N)c(C(=O)Nc3ccc(SC(F)F)cc3)c2)c1	> 150 µM (not active)		40.6 µM (active)	> 150 µM (not active)	
CC(C)=CCc1c(-c2ccc(O)cc2O)oc2cc3c(c(O)c2c1=O)C=CC(C)(C)O3 [CUDRAFLAVONE B]	> 150 µM (not active)		3.36 µM (active)	4.94 µM (active)	
CC(=O)NC[C@H]1CN(c2ccc(N3CCOCC3)c(F)c2)C(=O)O1 [LINEZOLID]	6 µM (inconclusive)		0.17 µM (active)	0.645 µM (active)	
COc1cccc(CNCc2ccccc2Br)c1OC		145 µM (active)			
COc1ccc(Oc2c(Cl)cnn(-c3ccc(Cl)c(Cl)c3)c2=O)cc1					EC50 [3]: 15 µM (active); EC50 [9]: 10.8 µM (active); EC50 [10]: 91.6 µM (active); EC50 [4]: 13.4 µM (active); EC50 [5]: 8.46 µM (active); AC50 [11]: 4.57 µM (active)
CCSc1nnc(-c2cccnc2)n1-c1ccc(C)c(Cl)c1					EC50 [3]: > 120 µM (not active); EC50 [4]: > 120 µM (not active); EC50 [5]: > 120 µM (not active)
NCCS(=O)(=O)NC1CCCCC1	> 150 µM (not active)		> 150 µM (not active)	> 150 µM (not active)	
CCCS(=O)(=O)N1CCN(CC2CC3C=CC2C3)CC1 (stereo unspecified)		205 µM (active)			
